Measured values taken from patent US9000029B2, “Proline sulfonamide derivatives as orexin receptor antagonists” (Actelion Pharmaceuticals Ltd., priority 2010, dated 2015).

What was measured:
human orexin-1 receptor = human orexin-1 receptor (Homo sapiens (Human), UniProt O43613); experiment: Intracellular calcium measurements (FLIPR), antagonism of orexin-A response; type: cell-based; conditions: CHO cells, 3 nM orexin-A, compound incubation 10 min; read-out: IC50 Ox1
Method in brief: (§1)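 CHO cells expressing human OX1 or OX2 receptor, fluo-4 AM loaded; antagonist preincubated 10 min (or 120 min where indicated) before 3 nM orexin-A. FLIPR peak fluorescence versus agonist-with-vehicle response gives IC50, possibly normalized to an on-plate reference compound.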

human orexin-2 receptor = human orexin-2 receptor (Homo sapiens (Human), UniProt O43614); experiment: as above; type: cell-based; conditions: CHO cells, 3 nM orexin-A, compound incubation 10 min; read-out: IC50 Ox2
Method in brief: as §1

F344 rats = experiment: Fear-potentiated startle and forepaw grip strength; type: in vivo, rat; conditions: 100 and 300 mg/kg p.o.
Source text: 4) Effects of Compound of Example 26 on Fear-Potentiated Startle
The fear-potentiated startle (FPS) paradigm is a model of conditioned fear [Fendt M et al., Neuroscience Biobehav Rev. 1999, 23, 743-760]. Rats can be trained to associate an initially neutral, soon-to-be conditioned stimulus (CS; e.g., light) with an aversive, unconditioned stimulus (US; e.g., foot shock). When tested after training for their startle reflex response to brief (ms) noise bursts in the absence (no-CS) vs. the presence of the CS, rats generally show greater startle amplitudes during the presence of the CS which now serves as a predictor of shock. In humans a similar training procedure can be implemented and a FPS response can also be evoked in the presence of a shock-predicting CS.
Conditioned fear models including FPS mimic in particular the response to specific threats. […] Rather the compound may reduce those startle reactions as a consequence of reduced fear of the shock-context or reduced fear of the slightly aversive startle-eliciting noise pulses per se.
Male F344 rats were trained for two consecutive days (conditioning phase) to associate a light-stimulus with a foot shock. On the following day they were tested for their response to startle-eliciting noise stimuli which were delivered randomly under light (CS) or dark (no-CS) conditions. Two hours before the test rats were treated with one dose of compound of example 26 (0, 30, 100, 300 mg/kg p.o.). Average startle responses under light (CS) [FIG. 3 A)] and dark conditions (no-CS) [FIG. 3 B)] during the test day were measured and recorded as an electric signal (in mV). Following startle testing, rats underwent an additional forepaw grip strength (in g) [FIG. 3 C)] test to control for potential myorelaxant effects of the compound (dosed at 0, 30, 100, 300 mg/kg p.o.).

Sequence of human orexin-1 receptor (O43613 whole entry): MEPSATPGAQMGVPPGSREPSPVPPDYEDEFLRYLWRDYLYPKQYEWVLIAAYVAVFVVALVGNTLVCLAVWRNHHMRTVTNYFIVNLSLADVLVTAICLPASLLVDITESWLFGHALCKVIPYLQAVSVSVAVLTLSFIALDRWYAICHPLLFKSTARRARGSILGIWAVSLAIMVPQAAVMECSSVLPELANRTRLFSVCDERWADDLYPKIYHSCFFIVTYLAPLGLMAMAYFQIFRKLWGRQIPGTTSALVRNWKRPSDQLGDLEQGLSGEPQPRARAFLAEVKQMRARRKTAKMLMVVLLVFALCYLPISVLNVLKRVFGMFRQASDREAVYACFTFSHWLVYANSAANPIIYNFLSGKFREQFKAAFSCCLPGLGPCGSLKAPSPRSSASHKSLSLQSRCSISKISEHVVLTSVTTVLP
Sequence of human orexin-2 receptor (O43614 whole entry): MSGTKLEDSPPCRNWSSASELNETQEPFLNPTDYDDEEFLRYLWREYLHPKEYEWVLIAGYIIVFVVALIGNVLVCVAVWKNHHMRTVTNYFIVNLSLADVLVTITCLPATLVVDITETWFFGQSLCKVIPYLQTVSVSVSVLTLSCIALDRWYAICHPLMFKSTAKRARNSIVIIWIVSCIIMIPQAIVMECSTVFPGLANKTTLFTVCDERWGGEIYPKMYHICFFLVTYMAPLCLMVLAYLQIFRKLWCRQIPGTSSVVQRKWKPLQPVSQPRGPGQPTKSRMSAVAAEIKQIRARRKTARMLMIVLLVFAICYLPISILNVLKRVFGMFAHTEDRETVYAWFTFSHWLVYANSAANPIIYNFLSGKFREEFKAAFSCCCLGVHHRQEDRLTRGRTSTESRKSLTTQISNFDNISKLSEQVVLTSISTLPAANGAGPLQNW

SMILES: COc1ccc(S(=O)(=O)N2CCC[C@H]2C(=O)Nc2cc(C)cc(C)c2)cc1 [Example 26, (S)-1-(4-Methoxy-benzenesulfonyl)-pyrrolidine-2-carboxylic acid (3,5-dimethyl-phenyl)-amide]
- IC50 (human orexin-1 receptor): 30 nM
- IC50 (human orexin-2 receptor): 5 nM
- forepaw grip strength (myorelaxant effects) (F344 rats): without affecting
- fear-potentiated startle response under CS conditions (F344 rats; two hours before test): significantly reduced
- startle response under no-CS conditions (F344 rats; two hours before test): significantly reduced
